From patent US20160175249A1, “Liposomes Containing Oligopeptide Fragments of Myelin Basic Protein, a Pharmaceutical Composition and a Method for Treatment of Multiple Sclerosis” (LIPOXEN TECHNOLOGIES LIMITED, priority 2009, published 2016) come the findings set out here.

The test system of assay [1] is EAE-induced DA rats. The assay is described as follows: EAE-induced DA rat model, paralysis score and mortality (DA-EAE-28-01, Example 12). It is filed as in vivo. The settings on record: daily s.c. injection, 6 total. The method, then: Each of the seven formulations being evaluated was provided as a lyophilized powder and stored at 4° C. Rehydration of each daily group dose was done with water for injection according to Table 6. MBP peptide formulations were re-suspended in water for injection (Cure Medical) and copaxone (Teva LTD) was diluted with Saline to a final concentration of 150 μg/mL. Each subject animal was administered the test formulation for 6 consecutive days by subcutaneous injection.
9 week old Dark Agouti (DA) female rats (Harlan Laboratories, Inc.), weighing between 125 and 145 grams were used as the test subjects. The health status of the animals used in this study was examined on arrival. Only animals in good health were acclimatized to laboratory conditions and were used in the study. Animals were provided Protein Rodent Diet (Teklad) ad libitum and free access to drinking water. Animals were housed in a controlled environment at between 20° C. and 24° C. with a relative humidity of 30-70% and a 12 hr light/12 hr dark cycle. Animals were randomly assigned to their respective test group. This study was performed following the review by the Committee for Ethical Conduct in the Care and Use of Laboratory Animals of the Assaf Harofeh medical center, Beer Yaakov, Ethical Committee number: 68/2009.
For induction of EAE, rats were intradermally injected at the base of the tail with a total volume of 200 μl of inoculum containing 50 μg of MBP(63-81) (ANASPEC), in saline mixed (1:1) with CFA, (IFA, Sigma) and 1 mg Mt (strain H37 RA; Difco Laboratories, Detroit, Mich.).
The rats were evaluated up daily starting 24 hours after immunization. […]
7-10 days post EAE induction, 54 animals were divided to 9 groups (6 rats in each), and blood was collected from 2 rats of each group before the initiation of the treatment. […] The animals were maintained and evaluated until day 28th post EAE-induction. […]
Animals were observed individually and clinical signs were recorded once daily during all study periods. […] The body weight of each animals was determined daily during all study periods. […]

For assay [2], the system named is experimental autoimmune encephalomyelitis (EAE) in DA rats. The experiment in a line: EAE in DA rats treated with MBP peptides in mannosylated SUV liposomes (Example 10). The assay is classed as in vivo. The method, then: All animal studies were carried out in animal facilities of Assaf Harofeh Medical Center (Zerifin, Israel) using standard approved practices for animal care. Induction of EAE was performed in 8-9 weeks Dark Agouti (DA) female rats. Briefly, rats were injected intradermally at the base of the tail with a total volume of 200 μl of inoculum, containing […] of MBP(63-81) (ANASPEC), in saline mixed (1:1) with CFA, (incomplete Freund's adjuvant (IFA), Sigma), and 1 mg MT (strain H37 RA; Difco Laboratories, Detroit, Mich.). Animals developing symptoms of MS were included to the study. Rats were treated with different liposomes formulations (Table 3), copaxone, or placebo (vehicle) under similar conditions for 6 days. All formulations were administrated by one subcutaneous injection per day. Animals were followed up till day 28th post EAE induction. Clinical signs score was performed daily during all study periods. Score gradation was the following: 0—Normal 1—tail weakness, 2—hind leg weakness or paralysis, 3—hind leg paralysis, dragging hind limbs, 4—complete paralysis, unable to move, 5—death.
Liposomes were assembled from a mixture of egg phosphatidylcholine (PC) and one molar percent mannosylated DOG (ManDOG) (Durova OM, supra). Assembly of SUV liposomes was performed as illustrated in FIG. 3: (i) formation of irregular lipid layers during evaporation of organic solvent, followed by re-hydration leading to the multi-layer multilamellar vesicle (MLV) liposomes formation; (ii) high-pressure homogenization resulting in formation of empty SUV; (iii) freeze drying of SUV liposomes with peptides—at this stage peptides are located between collapsed SUV liposomes; and (iv) encapsulation of peptides during second re-hydration into the SUV liposomes with an average diameter of approximately 60-100 nm, containing 1.0% mannose residues on their surface. Four formulations were used for this study: each B cell epitope MBP peptide (MBP1, MBP2, and MBP3) individually and a 1:1:1 mixture (by mass) of all three peptides.
Small unilamellar vesicles (SUV) were prepared from egg phosphatidylcholine (PC) and mannosylated DOG (Espuelas S. et al., Synthesis of an amphiphilic tetraantennary mannosyl conjugate and incorporation into liposome carriers, 2003 Bioorg Med Chem Lett., August 4; 13(15):2557-60, the contents of which are hereby incorporated by reference in their entirety for all purposes) (1:100 molar ratio) by high pressure homogenization (Durova OM, supra). Briefly, lipid mixture (100 mg/ml) in CHCl3 was dried under vacuum, further re-suspended in Milli-Q water to a final lipid concentration 50 mg/ml, followed by high-pressure homogenization (20,000 psi). Resulting SUV were mixed with peptides (lipid to peptide ratio 330:1) together with excess sugar (lactose to lipid ratio 3:1) with subsequent freeze-drying. Following rehydration under controlled conditions, the resulting SUV liposomes were washed by centrifugation to remove non-incorporated materials. The washed pellets were re-suspended in PBS to the required dose volume. Peptide incorporation was estimated on the basis of reversed-phase HPLC using linear gradient of acetonitrile applied on C18 column. The z-average diameter and zeta potential of liposomes were measured on a Brookhaven ZetaPlus zetasizer at 25° C. by diluting […] of the dispersion to the required volume with 1 mM PBS or appropriate media.
To test the therapeutic potential of the four formulations, DA rates presenting with induced EAE were subcutaneously injected with one of the four mannosylated liposomal formulations, copaxone (positive control), free (un-encapsulated) MBPI peptide (negative control), and empty mannosylated liposomes (vehicle control; Table 3).
Treatment of each rat was initiated at the first sign of EAE clinical manifestation. […]

The target of assay [3] is polyclonal serum anti-MBP antibodies isolated from immunized DA rats. The assay is described as follows: Surface plasmon resonance of autoAb binding to biotinylated MBP peptides and MBP. The settings on record: SPR, BiaCore T-200, antibodies 50 μg/ml, immobilized peptide or MBP; for Kd: read-out: effective dissociation constant. How it is done: To quantify autoAb recognition of the identified MBP epitopes, and to confirm their sequence in vitro, the affinity of polyclonal serum anti-MBP antibodies isolated from immunized DA rats for biotinylated MBP peptides was determined by surface plasmon resonance (FIG. 2B). The effective dissociation constant of the full-length MBP protein (1.5×10^−8) was determined to be nanomolar, as were the dissociation constants for MBP encephalitogenic (9.6×10^−9) and C-terminal (8.4×10^−9) fragments, verifying their identity as major B cell epitopes.
All surface plasmon resonance measurements were performed on BiaCore T-200 apparatus (GE Healthcare, US). Biotinylated MBP peptides (50 μg/ml) (listed on FIG. 2) and MBP were immobilized on SA and CM-5 chips respectively. All procedures were performed according manufacture's recommendations. Flow rate of HBS-EP buffer was kept as 10 μl/min during all measurements. Antibodies (50 μg/ml) were tested on both chips with standard association/dissociation time 300/300 s. Dissociation constants were calculated using BiaCore T-200 Evaluation Software 1.0.
For orientation: In SPR one partner is held on a chip, and binding of the other changes the refractive index at the surface.

As for “GGDRGAPKRGSGKDSHH (MBP peptide) [MBP1, myelin basic protein fragment MBP(46-62), free un-encapsulated peptide]”, in assay [1] (54 EAE induced DA rats, peptide dose 50 μg (mixtures 150 μg), deaths/N), the “Mortality Rate” value is recorded as 1/6. The “efficacy, overall disease score” value in assay [1] (comparison between groups) was “comparable”. Further, the “mean disease score course (FIG. 4)” value in assay [2] (6 daily s.c. injections from first clinical sign) is listed as “did not provide any beneficial effects”. Also, in assay [2] (one s.c. injection per day, 6 injections, deaths/N), the Mortality is 1/15. Further, the “Median Cumulative Disease Score” value in assay [2] (one s.c. injection per day, 6 injections, doses per Table 3) came to 19.5. Besides, the “Median Maximal Disease Score (IQR)” value in assay [2] (one s.c. injection per day, 6 injections, doses per Table 3, score 0-5) is listed as 3 (0.5)^2.

As for “IFKLGGRDSRSGSPMARR [C-terminal fragment]”, the Kd in assay [3] is 8.4 nM.

Turning to “MDHARHGFLPRH [biotinylated MBP fragment]”, the effective dissociation constant result in assay [3] is given as “not detectable”.

For the molecule “QDENPVVHFFKNIV [MBP encephalitogenic fragment]”, the Kd in assay [3] is 9.6 nM.

B1: full-length MBP protein: myelin basic protein, 18.5 kDa, 171 amino acids (protein)
chain: MASQKRPSQRHGSKYLATASTMDHARHGFLPRHRDTGILDSIGRFFGGDRGAPKRGSGKDSHHPARTAHYGSLPQKSHGRTQDENPVVHFFKNIVTPRTPPPSQGKGRGLSLSRFSWGAEGQRPGFGYGGRASDYKSAHKGFKGVDAQGTLSKIFKLGGRDSRSGSPMARR
modifications: MBP splice isoforms
notes: myelin basic protein, 18.5 kDa, 171 amino acids
For B1, in assay [3], the Kd was found to be 15 nM.
